Viability and Number of cells data for 19 compounds are collected here from patent US20230295068A1, “NOVEL CYCLOALKENONE COMPOUND OR SALT THEREOF” (TAIHO PHARMACEUTICAL CO., LTD., priority 2020, published 2023).

The test system of this series is ND3 neuronal cell line. The experiment in a line: Measurement of nerve growth stimulation effect (neurite bearing assay, neurite length assay, number of cells). The conditions noted are these: relative cell number, DMSO well = 1; for viability at 1 µM / viability at 3 µM / viability at 5 µM / viability at 10 µM / viability at 30 µM / viability at 100 µM: 6 hours; for Number of cells: ND3 cells, 6 h. Format: cell-based. The procedure: To evaluate the nerve growth stimulation effect, neurite bearing assay (proportion of neurite-bearing cells) and neurite length assay (neurite length) were analyzed with reference to the method of Topalli et al. (Brain Research 1030 (2004), pp. 116-124).
An ND3 neuronal cell line (European Collection of Authenticated Cell Cultures) was seeded in a DMEM medium containing 10% fetal bovine serum (0.6×10^4 cells/1 mL) in a 24-well plate. 24 hours later, the medium of seeded cells was removed, and a solution in which the compound of the present disclosure that was sequentially diluted in dimethyl sulfoxide (DMSO) was adjusted in DIEM containing 0.1% bovine serum albumin so that the DMSO final concentration was 0.1%, was added to cells (evaluation performed in duplicate). After six hours from the addition, the proportion of neurite-bearing cells (the number of cells having a neurite longer than the diameter of the cell body/number of total cells), and the neurite length per cell were analyzed. The number of total cells, proportion of neurite-bearing cells, and neurite length per cell were analyzed using a MetaMorph Neurite Outgrowth Application Module (Molecular Devices Japan K.K.). The number of cells was defined as the relative cell number, taking the number of cells per well containing DMSO as 1. The relative activity of each compound when the maximum activity of 3-(15-methoxypentadecyl)-2,4,4-trimethylcyclohexa-2-en-1-one (compound 24) in each test was defined as 1 is shown (Table 9). For the compounds for which multiple tests were conducted, the average value was shown. Data with a number of cells of 0.5 or more was also used. Accordingly, if the number of cells was less than 0.5, the neurite length per cell and the proportion of neurite-bearing cells were defined as “-”.

Consider `CC1=C(CCCCCCCCCCCCCOC(C)C)C(C)(C)CCC1=O` [Compound 18, 3-(13-isopropoxytridecyl)-2,4,4-trimethylcyclohex-2-en-1-one], for which the viability at 1 µM was 116%, the viability at 3 µM was found to be 106%, the viability at 5 µM stood at 89% and the viability at 10 µM amounted to 97%. Further, the viability at 30 µM worked out at 95% and the viability at 100 µM stood at 89%.
For the compound `COC(C)(C)CCCCCCCCCCCCCCC1=C(C)C(O)CCC1(C)C` (stereo not drawn) [Compound 47, 3-(15-methoxy-15-methylhexadecyl)-2,4,4-trimethylcyclohex-2-en-1-ol], the viability at 1 µM is 98%, the viability at 3 µM came out at 91%, the viability at 5 µM stood at 85% and the viability at 10 µM was found to be 89%. For the same compound, the viability at 30 µM turned out to be 88% and the viability at 100 µM turned out to be 87%.
As for `CCCOCCCCCCCCCCCCCC1=C(C)C(=O)CCC1(C)C` [Compound 19, 2,4,4-trimethyl-3-(13-propoxytridecyl)cyclohex-2-en-1-one], the viability at 1 µM worked out at 98%, the viability at 3 µM worked out at 105%, the viability at 5 µM came to 85% and the viability at 10 µM was 88%. The viability at 30 µM is 111% and the viability at 100 µM worked out at 105%.
With `CCOCCCCCCCCCCCCCC1=C(C)C(=O)CCC1(C)C` [Compound 17, 3-(13-ethoxytridecyl)-2,4,4-trimethylcyclohex-2-en-1-one], the viability at 1 µM turned out to be 99%, the viability at 3 µM stood at 105%, the viability at 5 µM is 97% and the viability at 10 µM came to 104%. Moreover, the viability at 30 µM turned out to be 72% and the viability at 100 µM came to 81%.
`CC1=C(CCCCCCCCCCCCCCCCOC(C)C)C(C)(C)CCC1=O` [Compound 31, 3-(16-isopropoxyhexadecyl)-2,4,4-trimethylcyclohex-2-en-1-one]: the viability at 1 µM was 99%, the viability at 3 µM is 93%, the viability at 5 µM worked out at 75% and the viability at 10 µM is 77%. The viability at 30 µM worked out at 84% and the viability at 100 µM stood at 93%.
With `CCOCCCCCCCCCCCCCCCC1=C(C)C(=O)CCC1(C)C` [Compound 25, 3-(15-ethoxypentadecyl)-2,4,4-trimethylcyclohex-2-en-1-one], the viability at 1 µM was 97%, the viability at 3 µM was found to be 103%, the viability at 5 µM was determined as 97% and the viability at 10 µM was 97%. Further, the viability at 30 µM turned out to be 98% and the viability at 100 µM worked out at 94%.
With `COCCCCCCCCCCCCCCCCC1=C(C)C(=O)CCC1(C)C` [Compound 29, 3-(16-methoxyhexadecyl)-2,4,4-trimethylcyclohex-2-en-1-one], the viability at 1 µM amounted to 107%, the viability at 3 µM is 98%, the viability at 5 µM was 96% and the viability at 10 µM stood at 92%. In addition, the viability at 30 µM was 97% and the viability at 100 µM came out at 93%.
As to `CC1=C(CCCCCCCCCCCCCCCOCc2ccccc2)C(C)(C)CCC1=O` [Compound 52, 3-(15-(benzyloxy)pentadecyl)-2,4,4-trimethylcyclohex-2-en-1-one], the viability at 1 µM amounted to 105%, the viability at 3 µM was determined as 100%, the viability at 5 µM came to 95% and the viability at 10 µM was found to be 96%. The viability at 30 µM came to 90% and the viability at 100 µM was 96%.
On to `CC1=C(CCCCCCCCCCCCOC(C)C)C(C)(C)CCC1=O` [Compound 13, 3-(12-isopropoxydodecyl)-2,4,4-trimethylcyclohex-2-en-1-one], for which the viability at 1 µM turned out to be 91%, the viability at 3 µM stood at 87%, the viability at 5 µM is 75% and the viability at 10 µM is 73%. Besides, the viability at 30 µM is 34% and the viability at 100 µM is 18%.
In the case of `COCCCCCCCCCCCCCCCC1=C(C)C(N)CCC1(C)C` (stereo not drawn) [Compound 66, 3-(15-methoxypentadecyl)-2,4,4-trimethylcyclohex-2-en-1-amine], the Number of cells came to 1.15 (1 μM compound); 1.11 (3 μM compound); 0.80 (5 μM compound); 0.79 (10 μM compound); 0.39 (30 μM compound); 0.04 (100 μM compound).
For the compound `CC1=C(CCCCCCCCCCCCCCCOC(N)=O)C(C)(C)CCC1=O` [Compound 35, 15-(2,6,6-trimethyl-3-oxocyclohex-1-en-1-yl)pentadecylcarbamate], the viability at 1 µM was determined as 94%, the viability at 3 µM came to 94%, the viability at 5 µM was 99% and the viability at 10 µM worked out at 82%. Moreover, the viability at 30 µM came to 16% and the viability at 100 µM was 31%.
Regarding `COCCCCCCCCCCCCCCCC1=C(C)C(=O)CCC1` [Compound 38, 3-(15-methoxypentadecyl)-2-methylcyclohex-2-en-1-one], the viability at 1 µM turned out to be 96%, the viability at 3 µM was 101%, the viability at 5 µM came to 91% and the viability at 10 µM came to 86%. For the same compound, the viability at 30 µM was determined as 80% and the viability at 100 µM was 52%.
In the case of `CCC1=C(CCCCCCCCCCCCCCCOC)C(C)(C)CCC1=O` [Compound 60, 2-ethyl-3-(15-methoxypentadecyl)-4,4-dimethylcyclohex-2-en-1-one], the viability at 1 µM amounted to 90%, the viability at 3 µM amounted to 91%, the viability at 5 µM worked out at 80% and the viability at 10 µM is 78%. The viability at 30 µM was found to be 34% and the viability at 100 µM was 79%.
Regarding `COCCCCCCCCCCCCCCCC1=C(C)C(=O)CCC12CC2` [Compound 44, 4-(15-methoxypentadecyl)-5-methylspiro[2,5]oct-4-en-6-one], the viability at 1 µM is 83%, the viability at 3 µM worked out at 90%, the viability at 5 µM amounted to 82% and the viability at 10 µM was found to be 75%. In addition, the viability at 30 µM turned out to be 91% and the viability at 100 µM was determined as 89%.
On to `COCCCCCCCCCCCCCCCC1=C(C)C(=O)C=CC1(C)C` [Compound 41, 3-(15-methoxypentadecyl)-2,4,4-trimethylcyclohex-2,5-dien-1-one], for which the viability at 1 µM was 110%, the viability at 3 µM came out at 112%, the viability at 5 µM came out at 82% and the viability at 10 µM worked out at 93%. For the same compound, the viability at 30 µM was 109% and the viability at 100 µM amounted to 114%.
As to `CCNC(=O)OCCCCCCCCCCCCCCCC1=C(C)C(=O)CCC1(C)C` [Compound 56, 15-(2,6,6-trimethyl-3-oxocyclohex-1-en-1-yl)pentadecylethylcarbamate], the viability at 1 µM was 94%, the viability at 3 µM worked out at 106%, the viability at 5 µM amounted to 93% and the viability at 10 µM stood at 95%. Moreover, the viability at 30 µM was 95% and the viability at 100 µM came out at 93%.
For `COCCCCCCCCCCCCCCC1=C(C)C(=O)CC1(C)C` [Compound 72, 3-(14-methoxytetradecyl)-2,4,4-trimethylcyclopent-2-en-1-one], the Number of cells stood at 0.84 (1 μM compound); 0.85 (3 μM compound); 0.78 (5 μM compound); 0.80 (10 μM compound); 0.41 (30 μM compound); 0.38 (100 μM compound).
As for `CC1=C(CCCCCCCCCCCCCCCOC(F)(F)F)C(C)(C)CCC1=O` [Compound 49, 2,4,4-trimethyl-3-(15-(trifluoromethoxy)pentadecyl)-cyclohex-2-en-1-one], the viability at 1 µM was found to be 96%, the viability at 3 µM came to 100%, the viability at 5 µM amounted to 101% and the viability at 10 µM turned out to be 101%. Further, the viability at 30 µM was determined as 103% and the viability at 100 µM amounted to 108%.
`CCCOCCCCCCCCCCCCC1=C(C)C(=O)CC1(C)C` [Compound 71, 2,4,4-trimethyl-3-(12-propoxydodecyl)cyclopent-2-en-1-one]: the Number of cells runs as follows: (1 μM compound) 0.87; (3 μM compound) 0.94; (5 μM compound) 0.87; (10 μM compound) 0.79; (30 μM compound) 0.39; (100 μM compound) 0.07.

By viability is commonly meant a read-out of living cells in per cent, often relative to untreated cells.
